The test system of test [1] is STZ-induced hyperglycemic mice. Details: method as in PMID 20040119. Conditions: 100 mg/kg/day; cited from earlier work.
Test [2] deals with AGEs formation. As to the kind of experiment: In vitro inhibitory activity of AGEs formation (bovine serum albumin/glucose). It counts as biochemical. Conditions: mean ± SD (n = 3). In short, it runs like this:
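Bovine serum albumin (10 mg/mL) with 0.2 M glucose in 50 mM PBS, pH 7.4, plus 0.02% sodium azide, was mixed with compound solutions (0.5–1000 μg/mL in DMSO) and held 14 d at 37 °C. AGE fluorescence was read at ex 350/em 420 nm in triplicate. Inhibition was corrected with glucose-free blanks, and IC50 calculated.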

For `N=C(N)NN` [AG, amino guanidine, reference compound], in test [1], the “effect on STZ-induced hyperglycemic mice” value was “no significant effect”. In addition, in test [2], half-maximal inhibition (IC50) was put at 270 ± 7.19 µM.
